One data set can be described thus: solubility in water. It is filed as physicochemical. Particulars: in comparison with the free base.
The next data set is described as follows: bio-availability. The conditions noted are these: in vivo.

Structures can show the parent of a compound that is named as a salt.

Take `CC1Oc2c(cccc2N2CCN(CCCc3c[nH]c4ccc(F)cc34)CC2)NC1=O` (centres unmarked) [mesylate, 8-{4-[3-(5-fluoro-1H-indol-3-yl)-propyl]-piperazin-1-yl}-2-methyl-4H-benzo[1,4]oxazin-3-one mesylate]: the solubility in water result in the data set “solubility in water” is “much better soluable in water than the free base”. The bio-availability result in the data set “bio-availability” is “good”.

For the origin of these results see US8106044B2, “8-{4-[3-(5-fluoro-1H-indol-3-yl)-propyl]-piperazin-1-yl}-2-methyl-4H-benzo[1,4]oxazin-3-one mesylate with high affinity for the dopamine D2 receptor and the serotonin reuptake site” (Solvay Pharmaceuticals B.V., priority 2001, dated 2012).
